According to ChEMBL document CHEMBL4376834, “Discovery of 4H-Chromen-4-one Derivatives as a New Class of Selective Rho Kinase (ROCK) Inhibitors, which Showed Potent Activity in ex Vivo Diabetic Retinopathy Models” (J Med Chem, 2019):

Columns and labels:
[1] = molecular target: Serine/threonine-protein kinase PLK2 (Homo sapiens, UniProt Q9NYY3); experiment: Inhibition of recombinant human SNK (65 to 409 residues) using casein as substrate incubated for 40 mins in presence of [gamma33P]ATP by radiometric scintillation counting analysis
[2] = molecular target: Dual specificity tyrosine-phosphorylation-regulated kinase 2 (Homo sapiens, UniProt Q92630); experiment: Inhibition of recombinant full length human DYRK2 using casein as substrate after 40 mins in presence of [gamma-33ATP] by radiometric scintillation counting analysis
[3] = molecular target: 5'-AMP-activated protein kinase catalytic subunit alpha-2 (Homo sapiens, UniProt P54646); experiment: Inhibition of human full length AMPKalpha2 recombinant using AMARAASAAALAR as substrate incubated for 40 mins in presence of [gamma-33ATP] by radiometric scintillation counting analysis
[4] = molecular target: Mitogen-activated protein kinase kinase kinase 9 (Homo sapiens, UniProt P80192); experiment: Inhibition of recombinant human MLK1 (134 to 414 residues) using casein as substrate incubated for 40 mins in presence of [gamma-33ATP by radiometric scintillation counting analysis
[5] = molecular target: Serine/threonine-protein kinase BRSK2 (Homo sapiens, UniProt Q8IWQ3); experiment: Inhibition of recombinant human BRSK2 (2 to end residues) using KKLNRTLSFAEPG substrate incubated for 40 mins in presence of [gamma-33ATP] by radiometric scintillation counting analysis
Sequence of Serine/threonine-protein kinase BRSK2 (Q8IWQ3 whole entry): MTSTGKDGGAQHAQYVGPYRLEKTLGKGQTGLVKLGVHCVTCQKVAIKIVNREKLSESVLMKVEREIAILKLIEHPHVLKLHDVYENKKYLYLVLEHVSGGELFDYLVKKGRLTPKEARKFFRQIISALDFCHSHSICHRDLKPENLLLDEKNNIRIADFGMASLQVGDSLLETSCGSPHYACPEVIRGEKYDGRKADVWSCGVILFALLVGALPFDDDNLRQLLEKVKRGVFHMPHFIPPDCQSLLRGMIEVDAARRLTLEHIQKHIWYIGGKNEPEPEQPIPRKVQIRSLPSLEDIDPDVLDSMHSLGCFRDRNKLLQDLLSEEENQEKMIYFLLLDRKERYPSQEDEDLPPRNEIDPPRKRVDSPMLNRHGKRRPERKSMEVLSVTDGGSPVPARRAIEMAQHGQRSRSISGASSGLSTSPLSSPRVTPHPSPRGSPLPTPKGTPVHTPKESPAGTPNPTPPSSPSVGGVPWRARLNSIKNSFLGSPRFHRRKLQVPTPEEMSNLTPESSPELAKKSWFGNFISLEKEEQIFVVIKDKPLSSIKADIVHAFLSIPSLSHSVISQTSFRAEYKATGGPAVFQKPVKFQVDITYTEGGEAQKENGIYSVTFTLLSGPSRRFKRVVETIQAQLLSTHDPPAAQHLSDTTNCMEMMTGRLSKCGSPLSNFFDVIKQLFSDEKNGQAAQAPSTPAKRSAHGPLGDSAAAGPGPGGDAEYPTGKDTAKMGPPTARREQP

Tribbles homolog 2 = Tribbles homolog 2 (Homo sapiens, UniProt Q92519); experiment: Inhibition of recombinant full-length human TRB2 using RRRFRPASPLRGP as substrate incubated for 120 mins in presence of [gamma33P]ATP by radiometric scintillation counting analysis
[6] = molecular target: Hepatocyte growth factor receptor (Homo sapiens, UniProt P08581, D1228N); experiment: Inhibition of recombinant human MET A1209G/V1290L/D1246N triple mutant (974 to end residues) using KKKGQEEEYVFIE as substrate incubated for 40 mins in presence of [gamma-33ATP by radiometric scintillation counting analysis
[7] = molecular target: Muscle, skeletal receptor tyrosine-protein kinase (Homo sapiens, UniProt O15146); experiment: Inhibition of recombinant human MUSK (530 to end residues) using myelin basic protein as substrate measured after 40 mins in presence of [gamma33P]ATP by radiometric scintillation counting analysis
Sequence of Muscle, skeletal receptor tyrosine-protein kinase (O15146 whole entry): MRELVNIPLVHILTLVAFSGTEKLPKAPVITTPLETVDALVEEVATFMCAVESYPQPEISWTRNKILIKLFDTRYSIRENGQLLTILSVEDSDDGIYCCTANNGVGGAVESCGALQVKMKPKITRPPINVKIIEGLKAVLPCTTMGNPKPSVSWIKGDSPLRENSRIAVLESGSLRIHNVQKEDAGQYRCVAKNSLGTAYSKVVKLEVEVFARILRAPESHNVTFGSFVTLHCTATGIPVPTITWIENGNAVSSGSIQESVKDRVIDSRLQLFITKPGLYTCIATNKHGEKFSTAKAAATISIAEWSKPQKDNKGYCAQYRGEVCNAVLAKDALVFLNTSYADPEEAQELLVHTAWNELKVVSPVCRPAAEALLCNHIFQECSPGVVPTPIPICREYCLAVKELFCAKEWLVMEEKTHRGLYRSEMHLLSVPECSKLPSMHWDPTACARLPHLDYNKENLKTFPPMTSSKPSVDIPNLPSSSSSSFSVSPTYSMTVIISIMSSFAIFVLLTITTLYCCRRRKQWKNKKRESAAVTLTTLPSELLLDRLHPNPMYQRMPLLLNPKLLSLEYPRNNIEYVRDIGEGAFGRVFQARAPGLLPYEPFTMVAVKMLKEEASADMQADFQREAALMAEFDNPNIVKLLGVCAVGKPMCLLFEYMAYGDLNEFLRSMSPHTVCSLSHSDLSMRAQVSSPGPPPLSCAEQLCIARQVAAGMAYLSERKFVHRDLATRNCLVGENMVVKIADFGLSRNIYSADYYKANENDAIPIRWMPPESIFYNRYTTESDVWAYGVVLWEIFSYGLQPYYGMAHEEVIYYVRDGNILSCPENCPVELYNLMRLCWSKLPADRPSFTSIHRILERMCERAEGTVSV

[8] = molecular target: Tyrosine-protein kinase Fes/Fps (Homo sapiens, UniProt P07332); experiment: Inhibition of recombinant human FES (2 to end residues) using poly(Glu, Tyr) 4:1 as substrate after 40 mins in presence of [gamma-33ATP] by radiometric scintillation counting analysis
[9] = Protein binding in monkey plasma at 1 uM incubated incubated for 5 hrs under shaking conditions by LC-MS analysis; assay type: ADME, cell-free, Macaca mulatta; conditions: rhesus monkey, read-out: PPB (converted)
[10] = molecular target: Mitogen-activated protein kinase kinase kinase 7 (Homo sapiens, UniProt O43318); experiment: Inhibition of recombinant human TAK1 (1 to 303 residues) using casein as substrate incubated for 40 mins in presence of [gamma33P]ATP by radiometric scintillation counting analysis
Sequence of Mitogen-activated protein kinase kinase kinase 7 (O43318 whole entry, the tested form may be a part): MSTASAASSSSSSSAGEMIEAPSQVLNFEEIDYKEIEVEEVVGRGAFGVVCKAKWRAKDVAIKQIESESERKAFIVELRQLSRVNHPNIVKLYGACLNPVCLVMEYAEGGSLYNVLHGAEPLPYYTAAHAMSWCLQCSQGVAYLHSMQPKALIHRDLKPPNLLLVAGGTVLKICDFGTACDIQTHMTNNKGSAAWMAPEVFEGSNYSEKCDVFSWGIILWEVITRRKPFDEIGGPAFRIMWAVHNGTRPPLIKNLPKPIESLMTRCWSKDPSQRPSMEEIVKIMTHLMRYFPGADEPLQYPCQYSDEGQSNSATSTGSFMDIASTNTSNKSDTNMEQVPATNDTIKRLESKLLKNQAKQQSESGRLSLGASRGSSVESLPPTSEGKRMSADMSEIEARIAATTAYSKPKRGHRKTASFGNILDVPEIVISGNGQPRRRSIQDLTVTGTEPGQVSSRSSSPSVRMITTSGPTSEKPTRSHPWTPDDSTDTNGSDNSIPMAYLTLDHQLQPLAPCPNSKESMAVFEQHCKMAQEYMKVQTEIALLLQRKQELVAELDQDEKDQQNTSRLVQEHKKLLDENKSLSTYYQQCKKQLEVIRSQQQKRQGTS

[11] = molecular target: Fibroblast growth factor receptor 4 (Homo sapiens, UniProt P22455); experiment: Inhibition of recombinant human FGFR4 (442 to 755 residues) using poly(Glu, Tyr) 4:1 as substrate after 40 mins in presence of [gamma-33ATP] by radiometric scintillation counting analysis
LIM domain kinase 2 = LIM domain kinase 2 (Homo sapiens, UniProt P53671); experiment: Inhibition of human LIMK2 in presence of 10 uM of ATP by radiometric analysis
[12] = molecular target: Serine/threonine-protein kinase PRP4 homolog (Homo sapiens, UniProt Q13523); experiment: Inhibition of recombinant human PRP4 (663 to end residues) using casein as substrate incubated for 40 mins in presence of [gamma33P]ATP by radiometric scintillation counting analysis
Ephrin type-B receptor 1 = Ephrin type-B receptor 1 (Homo sapiens, UniProt P54762); experiment: Inhibition of recombinant human EphB1 (564 to end residues) using […] as substrate after 40 mins in presence of [gamma-33ATP] by radiometric scintillation counting analysis
[13] = molecular target: Testis-specific serine/threonine-protein kinase 4 (Homo sapiens, UniProt Q6SA08); experiment: Inhibition of recombinant full-length human TSSK4 using KKLNRTLSFAEPG as substrate incubated for 40 mins in presence of [gamma33P]ATP by radiometric scintillation counting analysis
[14] = molecular target: Tyrosine-protein kinase HCK (Homo sapiens, UniProt P08631); experiment: Inhibition of human HCK recombinant (230 to 497 residues) using […] as substrate after 40 mins by [gamma-33ATP] radiometric assay
Sequence of Tyrosine-protein kinase HCK (P08631 whole entry, the tested form may be a part): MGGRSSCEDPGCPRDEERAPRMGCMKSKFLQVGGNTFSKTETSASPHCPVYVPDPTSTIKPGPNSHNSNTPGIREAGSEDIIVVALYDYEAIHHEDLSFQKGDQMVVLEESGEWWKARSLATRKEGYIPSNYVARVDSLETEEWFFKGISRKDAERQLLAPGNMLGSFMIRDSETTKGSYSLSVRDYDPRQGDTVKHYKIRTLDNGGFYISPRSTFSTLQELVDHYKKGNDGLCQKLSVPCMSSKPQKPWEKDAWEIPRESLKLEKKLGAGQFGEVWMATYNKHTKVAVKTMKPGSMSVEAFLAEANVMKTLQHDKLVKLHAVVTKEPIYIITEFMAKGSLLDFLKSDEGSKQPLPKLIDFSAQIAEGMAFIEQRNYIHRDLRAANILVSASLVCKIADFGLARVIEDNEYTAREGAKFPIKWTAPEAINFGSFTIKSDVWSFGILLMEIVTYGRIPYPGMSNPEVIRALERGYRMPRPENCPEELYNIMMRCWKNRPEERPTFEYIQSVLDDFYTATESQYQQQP

[15] = molecular target: Casein kinase II subunit alpha (Homo sapiens, UniProt P68400); experiment: Inhibition of recombinant full length human CK2alpha1 using RRRDDDSDDD as substrate incubated 40 mins in presence of [gamma-33ATP] by radiometric scintillation counting analysis
[16] = molecular target: RAC-beta serine/threonine-protein kinase (Homo sapiens, UniProt P31751, S474D); experiment: Inhibition of recombinant human PKBbeta S474D mutant (120 to end residues) using GRPRTSSFAEGKK as substrate incubated for 40 mins in presence of [gamma33P]ATP by radiometric scintillation counting analysis
[17] = molecular target: Tyrosine-protein kinase CSK (Homo sapiens, UniProt P41240); experiment: Inhibition of recombinant full length human CSK using poly(Glu, Tyr) 4:1 as substrate incubated 40 mins in presence of [gamma-33ATP] by radiometric scintillation counting analysis
Sequence of Tyrosine-protein kinase CSK (P41240 whole entry): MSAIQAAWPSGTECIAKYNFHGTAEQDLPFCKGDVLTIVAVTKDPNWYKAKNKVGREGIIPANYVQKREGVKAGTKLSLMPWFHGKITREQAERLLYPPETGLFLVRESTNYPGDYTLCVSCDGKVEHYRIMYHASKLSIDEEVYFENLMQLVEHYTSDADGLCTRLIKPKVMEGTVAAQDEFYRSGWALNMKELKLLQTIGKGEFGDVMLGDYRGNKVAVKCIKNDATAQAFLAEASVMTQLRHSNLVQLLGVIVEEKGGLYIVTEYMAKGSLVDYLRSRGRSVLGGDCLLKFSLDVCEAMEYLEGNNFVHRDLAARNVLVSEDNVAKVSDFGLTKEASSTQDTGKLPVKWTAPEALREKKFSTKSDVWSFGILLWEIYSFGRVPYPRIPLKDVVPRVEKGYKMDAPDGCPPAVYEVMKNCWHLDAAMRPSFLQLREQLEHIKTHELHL

[18] = molecular target: Platelet-derived growth factor receptor alpha (Homo sapiens, UniProt P16234); experiment: Inhibition of human PDGFRalpha (550 to end residues) using poly(Glu, Tyr) 4:1 as substrate measured after 40 mins in presence of [gamma33P]ATP by radiometric scintillation counting analysis
Sequence of Platelet-derived growth factor receptor alpha (P16234 whole entry): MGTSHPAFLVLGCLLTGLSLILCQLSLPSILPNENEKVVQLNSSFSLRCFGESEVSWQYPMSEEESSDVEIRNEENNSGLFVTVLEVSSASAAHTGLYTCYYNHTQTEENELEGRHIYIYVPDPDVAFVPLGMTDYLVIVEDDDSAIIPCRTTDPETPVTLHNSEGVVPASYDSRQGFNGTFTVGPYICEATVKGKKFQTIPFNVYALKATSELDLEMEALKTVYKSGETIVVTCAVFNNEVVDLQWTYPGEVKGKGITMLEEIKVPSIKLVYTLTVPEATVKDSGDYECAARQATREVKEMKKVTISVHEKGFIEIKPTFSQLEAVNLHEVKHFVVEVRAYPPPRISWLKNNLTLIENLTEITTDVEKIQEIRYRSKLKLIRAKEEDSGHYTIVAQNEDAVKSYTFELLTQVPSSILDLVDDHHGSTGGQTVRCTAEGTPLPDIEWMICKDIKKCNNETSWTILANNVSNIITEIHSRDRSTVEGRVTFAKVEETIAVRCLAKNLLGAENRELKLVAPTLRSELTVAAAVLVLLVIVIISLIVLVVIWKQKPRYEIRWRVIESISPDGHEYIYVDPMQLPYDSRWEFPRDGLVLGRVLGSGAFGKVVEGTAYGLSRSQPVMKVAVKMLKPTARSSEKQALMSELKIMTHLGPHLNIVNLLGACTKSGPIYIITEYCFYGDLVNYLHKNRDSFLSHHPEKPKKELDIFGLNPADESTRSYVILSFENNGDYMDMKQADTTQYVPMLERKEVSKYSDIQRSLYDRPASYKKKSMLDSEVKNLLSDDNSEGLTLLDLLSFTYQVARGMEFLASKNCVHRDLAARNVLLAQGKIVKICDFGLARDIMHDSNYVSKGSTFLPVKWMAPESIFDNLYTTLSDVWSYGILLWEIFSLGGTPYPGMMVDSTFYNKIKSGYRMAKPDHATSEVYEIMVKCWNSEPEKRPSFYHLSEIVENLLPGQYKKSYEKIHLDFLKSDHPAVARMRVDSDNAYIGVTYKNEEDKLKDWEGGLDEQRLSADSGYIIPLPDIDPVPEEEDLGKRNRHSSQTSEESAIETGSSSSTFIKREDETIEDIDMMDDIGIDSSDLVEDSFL

[19] = molecular target: Serine/threonine-protein kinase 35 (Homo sapiens, UniProt Q8TDR2); experiment: Inhibition of recombinant full length human CLIK1 at 10 uM using RSRSRSRSRSRS as substrate measured after 40 mins in presence of [gamma33P]ATP by radiometric scintillation counting analysis
[20] = molecular target: Ribosomal protein S6 kinase alpha-3 (Homo sapiens, UniProt P51812); experiment: Inhibition of recombinant human Rsk2 (2 to end residues) using KKKNRTLSVA as substrate incubated for 40 mins in presence of [gamma33P]ATP by radiometric scintillation counting analysis
[21] = molecular target: Dual specificity protein kinase CLK4 (Homo sapiens, UniProt Q9HAZ1); experiment: Inhibition of recombinant human CLK4 (128 to end residues) using YRRAAVPPSPSLSR as substrate incubated 40 mins in presence of [gamma-33ATP] by radiometric scintillation counting analysis
[22] = molecular target: Cyclin-dependent kinase 1/cyclin B1 (Homo sapiens, UniProt P06493); experiment: Inhibition of recombinant full length human CDK1/CyclinB using Histone H1 as substrate incubated for 40 mins in presence of [gamma-33ATP] by radiometric scintillation counting analysis; assay type: protein-complex assay
[23] = molecular target: Serine/threonine-protein kinase Nek11 (Homo sapiens, UniProt Q8NG66); experiment: Inhibition of recombinant full length human NEK11 using myelin basic protein as substrate measured after 40 mins in presence of [gamma33P]ATP by radiometric scintillation counting analysis
Sequence of Serine/threonine-protein kinase Nek11 (Q8NG66 whole entry): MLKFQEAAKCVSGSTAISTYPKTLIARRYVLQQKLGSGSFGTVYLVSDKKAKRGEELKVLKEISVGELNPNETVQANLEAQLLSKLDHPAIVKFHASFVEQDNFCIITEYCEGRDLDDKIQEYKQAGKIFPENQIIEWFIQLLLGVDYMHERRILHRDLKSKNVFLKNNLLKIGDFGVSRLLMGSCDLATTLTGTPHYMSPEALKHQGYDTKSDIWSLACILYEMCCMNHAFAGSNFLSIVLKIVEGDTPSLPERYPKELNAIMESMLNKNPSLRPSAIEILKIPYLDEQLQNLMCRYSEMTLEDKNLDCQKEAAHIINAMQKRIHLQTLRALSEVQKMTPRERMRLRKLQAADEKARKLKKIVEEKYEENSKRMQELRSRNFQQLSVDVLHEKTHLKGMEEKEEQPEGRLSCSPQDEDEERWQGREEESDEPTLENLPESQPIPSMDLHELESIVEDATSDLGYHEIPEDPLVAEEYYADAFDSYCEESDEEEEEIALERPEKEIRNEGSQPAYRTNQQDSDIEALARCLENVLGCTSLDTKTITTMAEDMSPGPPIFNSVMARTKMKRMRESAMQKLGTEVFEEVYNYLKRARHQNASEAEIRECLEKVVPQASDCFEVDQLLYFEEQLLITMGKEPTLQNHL

CN(C)c1ccc(C(=O)Nc2cccc(NC(=O)COc3ccc4c(=O)ccoc4c3)c2)cc1
IC50 [1]: > 10 µM
IC50 [2]: > 10 µM
IC50 [3]: > 10 µM
IC50 [4]: > 10 µM
IC50 [5]: > 10 µM
IC50 (Tribbles homolog 2): > 10 µM
IC50 [6]: > 10 µM
IC50 [7]: > 10 µM
IC50 [8]: > 10 µM
fraction unbound at 5 h, 1 µM [9]: 0.002
IC50 [10]: > 10 µM
IC50 [11]: > 10 µM
IC50 (LIM domain kinase 2): 0.046 µM
IC50 [12]: > 10 µM
IC50 (Ephrin type-B receptor 1): > 10 µM
IC50 [13]: > 10 µM
IC50 [14]: > 10 µM
IC50 [15]: > 10 µM
IC50 [16]: > 10 µM
IC50 [17]: > 10 µM
IC50 [18]: > 10 µM
IC50 [19]: > 10 µM
IC50 [20]: > 10 µM
IC50 [21]: > 10 µM
IC50 [22]: > 10 µM
IC50 [23]: > 10 µM
